From ChEMBL document CHEMBL1201862, “PubChem BioAssay data set” (2004)
Activity calls are given as the source filed them.

What was measured:
[1] = target: Glucose-6-phosphate 1-dehydrogenase (Homo sapiens, UniProt P11413); assay: human G6PD enzyme inhibitors, dose response, selectivity assay for P. falciparum G6PD inhibitor project, biochemical, fluorescence (AID 504792); format: functional
[2] = target: T1, Ubiquitin-conjugating enzyme E2 N (Homo sapiens, UniProt P61088); format: functional
T1 sequence (P61088 whole entry): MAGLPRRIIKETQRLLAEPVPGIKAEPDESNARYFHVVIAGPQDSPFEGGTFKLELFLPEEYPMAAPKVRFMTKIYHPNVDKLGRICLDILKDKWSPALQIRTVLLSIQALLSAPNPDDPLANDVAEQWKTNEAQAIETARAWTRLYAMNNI

[3] = target: T1, Ubiquitin-conjugating enzyme E2 N; format: functional; remark: listed apart in the source
[4] = target: T2, Bcl-2-related protein A1 (Mus musculus, UniProt Q07440); format: functional;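 note: confirmatory dose–response counterscreen on Bfl-1, used to check hits from a UBC13 polyubiquitin inhibitor campaign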
T2 sequence (Q07440 whole entry): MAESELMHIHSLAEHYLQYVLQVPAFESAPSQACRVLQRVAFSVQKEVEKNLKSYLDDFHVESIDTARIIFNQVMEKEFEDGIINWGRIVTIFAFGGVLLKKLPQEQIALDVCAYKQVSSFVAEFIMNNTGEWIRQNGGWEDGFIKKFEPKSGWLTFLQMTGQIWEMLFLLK

[5] = Luminescence Cell-Based Dose Retest to Confirm Inhibitors of Cancer Stem Cells. [Related pubchem assays (depositor defined):AID2717, AID2721]; format: functional; conditions: Homo sapiens
[6] = target: Intestinal-type alkaline phosphatase (Homo sapiens, UniProt P09923); assay: human intestinal alkaline phosphatase activators, dose response, biochemical, luminescence, uHTS hits (AID 463120); format: functional
Intestinal-type alkaline phosphatase, sequence (P09923 whole entry): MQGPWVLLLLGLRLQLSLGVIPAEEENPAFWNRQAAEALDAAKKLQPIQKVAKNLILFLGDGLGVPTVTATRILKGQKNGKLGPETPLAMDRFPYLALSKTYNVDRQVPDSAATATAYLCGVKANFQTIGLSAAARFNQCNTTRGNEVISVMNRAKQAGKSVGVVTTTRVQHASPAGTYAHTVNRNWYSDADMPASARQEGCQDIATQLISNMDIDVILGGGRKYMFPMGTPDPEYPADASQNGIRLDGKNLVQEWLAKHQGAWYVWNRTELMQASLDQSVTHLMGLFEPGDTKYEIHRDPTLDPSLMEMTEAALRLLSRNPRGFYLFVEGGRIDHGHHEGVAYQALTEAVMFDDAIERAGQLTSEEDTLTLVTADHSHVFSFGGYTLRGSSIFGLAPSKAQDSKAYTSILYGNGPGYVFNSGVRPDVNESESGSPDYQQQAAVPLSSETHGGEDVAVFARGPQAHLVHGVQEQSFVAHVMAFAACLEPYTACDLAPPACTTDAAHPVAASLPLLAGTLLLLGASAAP

[7] = target: T3, Alkaline phosphatase, tissue-nonspecific isozyme (Homo sapiens, UniProt P05186); assay: human TNAP enzyme inhibitors, SAR follow-up, biochemical, luminescent, dose response (AID 1056)
T3 sequence (P05186 whole entry): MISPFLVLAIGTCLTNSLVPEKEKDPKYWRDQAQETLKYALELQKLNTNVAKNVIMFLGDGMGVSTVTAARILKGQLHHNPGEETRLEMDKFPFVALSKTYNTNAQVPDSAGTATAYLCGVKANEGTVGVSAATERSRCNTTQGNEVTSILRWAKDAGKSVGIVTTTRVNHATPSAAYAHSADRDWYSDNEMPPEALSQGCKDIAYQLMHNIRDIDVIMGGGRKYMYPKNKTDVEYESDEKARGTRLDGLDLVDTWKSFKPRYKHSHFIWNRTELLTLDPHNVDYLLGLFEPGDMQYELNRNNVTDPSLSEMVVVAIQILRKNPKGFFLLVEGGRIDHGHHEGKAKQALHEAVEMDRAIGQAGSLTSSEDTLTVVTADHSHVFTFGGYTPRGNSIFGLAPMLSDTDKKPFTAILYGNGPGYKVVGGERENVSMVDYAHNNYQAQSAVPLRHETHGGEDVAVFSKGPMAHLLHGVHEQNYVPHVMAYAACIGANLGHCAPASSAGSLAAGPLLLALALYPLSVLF

[8] = target: Glyceraldehyde-3-phosphate dehydrogenase (Homo sapiens, UniProt P04406)
Glyceraldehyde-3-phosphate dehydrogenase, sequence (P04406 whole entry): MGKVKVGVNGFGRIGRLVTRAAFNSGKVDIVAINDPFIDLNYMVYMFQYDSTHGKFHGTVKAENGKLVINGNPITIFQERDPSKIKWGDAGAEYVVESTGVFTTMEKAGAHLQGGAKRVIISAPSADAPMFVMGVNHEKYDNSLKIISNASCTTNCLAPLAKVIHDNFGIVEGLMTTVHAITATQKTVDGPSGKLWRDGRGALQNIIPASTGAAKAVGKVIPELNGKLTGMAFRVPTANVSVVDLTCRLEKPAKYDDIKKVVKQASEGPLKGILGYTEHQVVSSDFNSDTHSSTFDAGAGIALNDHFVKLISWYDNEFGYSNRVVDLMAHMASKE

[9] = target: Alkaline phosphatase, placental type (Homo sapiens, UniProt P05187); assay: PLAP enzyme inhibitors, confirmation, biochemical, luminescence (AID 1512); format: functional
Alkaline phosphatase, placental type, sequence (P05187 whole entry): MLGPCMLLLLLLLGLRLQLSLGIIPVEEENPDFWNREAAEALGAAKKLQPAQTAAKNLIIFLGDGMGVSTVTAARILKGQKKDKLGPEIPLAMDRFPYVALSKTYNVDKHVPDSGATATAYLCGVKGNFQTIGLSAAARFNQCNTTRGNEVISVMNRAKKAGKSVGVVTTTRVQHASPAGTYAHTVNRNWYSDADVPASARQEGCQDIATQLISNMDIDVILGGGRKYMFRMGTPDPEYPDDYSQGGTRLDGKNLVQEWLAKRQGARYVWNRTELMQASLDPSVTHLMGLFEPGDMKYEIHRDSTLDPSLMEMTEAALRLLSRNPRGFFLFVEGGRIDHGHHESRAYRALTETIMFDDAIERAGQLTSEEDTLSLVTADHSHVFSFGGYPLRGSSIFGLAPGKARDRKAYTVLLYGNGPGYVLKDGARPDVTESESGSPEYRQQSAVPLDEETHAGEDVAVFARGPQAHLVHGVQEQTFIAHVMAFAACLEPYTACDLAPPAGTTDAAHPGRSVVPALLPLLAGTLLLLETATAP

[10] = target: T4, Replicative DNA helicase DnaB (Mycobacterium tuberculosis, UniProt P9WMR3); assay: DnaB intein splicing inhibitors, dose response, biochemical, cell-free fluorescence (AID 449749); format: functional
T4 sequence (P9WMR3 whole entry): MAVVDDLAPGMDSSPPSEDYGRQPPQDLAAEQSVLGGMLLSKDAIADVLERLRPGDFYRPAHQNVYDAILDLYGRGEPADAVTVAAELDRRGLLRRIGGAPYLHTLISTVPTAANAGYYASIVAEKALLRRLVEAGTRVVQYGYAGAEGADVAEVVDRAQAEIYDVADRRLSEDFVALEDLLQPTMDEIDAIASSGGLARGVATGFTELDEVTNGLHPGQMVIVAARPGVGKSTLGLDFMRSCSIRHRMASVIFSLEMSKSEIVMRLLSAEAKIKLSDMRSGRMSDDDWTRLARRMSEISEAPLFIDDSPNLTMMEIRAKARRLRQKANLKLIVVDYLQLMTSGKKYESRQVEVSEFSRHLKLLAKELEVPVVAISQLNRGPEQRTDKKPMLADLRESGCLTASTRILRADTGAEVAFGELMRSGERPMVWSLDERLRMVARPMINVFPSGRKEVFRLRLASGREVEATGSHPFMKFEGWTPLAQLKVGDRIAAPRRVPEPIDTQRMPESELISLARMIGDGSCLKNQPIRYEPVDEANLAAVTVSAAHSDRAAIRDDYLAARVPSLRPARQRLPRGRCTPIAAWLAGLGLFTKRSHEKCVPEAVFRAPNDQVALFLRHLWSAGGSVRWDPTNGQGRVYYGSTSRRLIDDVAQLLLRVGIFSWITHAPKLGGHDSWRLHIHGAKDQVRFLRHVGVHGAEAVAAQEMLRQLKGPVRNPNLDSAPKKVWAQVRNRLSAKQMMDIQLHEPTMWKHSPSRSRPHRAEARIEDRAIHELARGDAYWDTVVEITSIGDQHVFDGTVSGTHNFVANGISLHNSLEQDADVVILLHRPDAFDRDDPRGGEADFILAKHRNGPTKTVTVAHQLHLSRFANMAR

[11] = target: T5, G-protein coupled receptor 35 (Homo sapiens, UniProt Q9HC97); assay: SAR Analysis for the identification of Selective Antagonists of ERK1/2 Activity in GPR35-Overexpressing U2OS Cells. [Related pubchem assays: 2079, 2058 ]; format: functional, cell-based
T5 sequence (Q9HC97 whole entry): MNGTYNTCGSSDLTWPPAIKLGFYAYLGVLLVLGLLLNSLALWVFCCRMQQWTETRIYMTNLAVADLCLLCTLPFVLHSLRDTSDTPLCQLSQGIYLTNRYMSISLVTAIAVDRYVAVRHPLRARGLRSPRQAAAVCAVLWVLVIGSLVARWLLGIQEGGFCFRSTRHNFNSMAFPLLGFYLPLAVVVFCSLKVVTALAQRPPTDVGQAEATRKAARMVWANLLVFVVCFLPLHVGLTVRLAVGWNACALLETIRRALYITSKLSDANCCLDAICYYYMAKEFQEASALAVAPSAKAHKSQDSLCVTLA

[12] = target: T5, G-protein coupled receptor 35; assay: GPR35 antagonists blocking zaprinast-driven arrestin recruitment, primary screen, imaging, U2OS, beta-arrestin-GFP, zaprinast agonist (AID 2058); format: functional;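 note: antagonist potency meaning inhibition of agonist-induced arrestin redistribution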
[13] = target: T6, Protein RecA (Mycobacterium tuberculosis, UniProt P9WHJ3); assay: Fluorescence Cell-Free Homogeneous Dose Retest to Identify Inhibitors of RecA-Intein Splicing Activity. [Related pubchem assays (depositor defined):AID2097, AID2223, AID489010, AID492950]; format: functional
T6 sequence (P9WHJ3 whole entry): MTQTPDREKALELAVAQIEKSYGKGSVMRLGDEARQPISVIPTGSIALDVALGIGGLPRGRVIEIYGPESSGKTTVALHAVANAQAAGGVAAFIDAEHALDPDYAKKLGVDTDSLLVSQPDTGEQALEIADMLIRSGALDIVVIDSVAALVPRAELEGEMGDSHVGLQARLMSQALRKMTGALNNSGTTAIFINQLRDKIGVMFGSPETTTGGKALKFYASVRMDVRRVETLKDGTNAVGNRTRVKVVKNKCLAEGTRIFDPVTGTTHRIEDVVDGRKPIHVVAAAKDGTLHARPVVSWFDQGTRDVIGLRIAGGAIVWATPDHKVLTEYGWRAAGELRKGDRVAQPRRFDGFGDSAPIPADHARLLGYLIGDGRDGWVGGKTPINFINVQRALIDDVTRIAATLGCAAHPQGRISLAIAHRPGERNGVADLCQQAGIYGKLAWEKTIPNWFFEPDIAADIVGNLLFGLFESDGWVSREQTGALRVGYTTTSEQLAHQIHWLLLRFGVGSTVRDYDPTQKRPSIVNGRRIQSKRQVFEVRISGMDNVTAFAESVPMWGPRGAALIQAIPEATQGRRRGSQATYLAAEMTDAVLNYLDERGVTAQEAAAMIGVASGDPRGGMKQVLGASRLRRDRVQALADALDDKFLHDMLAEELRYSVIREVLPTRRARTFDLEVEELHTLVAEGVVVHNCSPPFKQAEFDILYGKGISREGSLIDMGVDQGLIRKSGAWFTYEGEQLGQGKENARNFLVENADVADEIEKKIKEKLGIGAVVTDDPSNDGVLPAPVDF

[14] = target: G-protein coupled receptor 55 (Homo sapiens, UniProt Q9Y2T6); assay: GPR55 antagonists, SAR follow-up, counter-screen for GPR35 antagonist project, imaging, image-based (AID 2397); format: functional
G-protein coupled receptor 55, sequence (Q9Y2T6 whole entry): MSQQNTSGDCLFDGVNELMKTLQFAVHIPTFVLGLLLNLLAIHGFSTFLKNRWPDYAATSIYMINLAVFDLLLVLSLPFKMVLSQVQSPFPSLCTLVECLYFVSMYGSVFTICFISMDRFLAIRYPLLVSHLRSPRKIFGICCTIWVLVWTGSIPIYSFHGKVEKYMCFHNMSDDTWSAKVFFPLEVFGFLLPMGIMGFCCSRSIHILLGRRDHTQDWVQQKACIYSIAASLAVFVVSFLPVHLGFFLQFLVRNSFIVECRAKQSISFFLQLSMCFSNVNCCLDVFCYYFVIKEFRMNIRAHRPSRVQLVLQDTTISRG

[15] = target: T7, Orexin/Hypocretin receptor type 1 (Homo sapiens, UniProt O43613); assay: Homogeneous Time Resolved Fluorescence (HTRF)-based cell-based high throughput dose response assay for antagonists of the orexin 1 receptor (OX1R; HCRTR1). [Related pubchem assays (depositor defined):AID434989, AID435008, AID463079, AID485270, AID492963, AID492964, AID492965, AID493232, AID504717, AID504718]; format: functional
T7 sequence (O43613 whole entry): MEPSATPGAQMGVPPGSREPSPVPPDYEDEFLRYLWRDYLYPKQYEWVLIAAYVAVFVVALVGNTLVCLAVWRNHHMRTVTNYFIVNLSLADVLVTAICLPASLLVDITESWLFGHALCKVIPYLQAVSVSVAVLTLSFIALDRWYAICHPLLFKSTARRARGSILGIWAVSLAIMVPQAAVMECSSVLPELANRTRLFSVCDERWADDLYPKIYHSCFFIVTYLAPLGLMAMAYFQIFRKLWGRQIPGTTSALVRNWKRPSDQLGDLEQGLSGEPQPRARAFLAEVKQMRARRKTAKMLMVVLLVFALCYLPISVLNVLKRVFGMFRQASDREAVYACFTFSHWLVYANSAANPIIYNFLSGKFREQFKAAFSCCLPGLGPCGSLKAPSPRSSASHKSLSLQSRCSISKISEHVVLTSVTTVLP

[16] = (§1) Counterscreen for antagonists of the orexin 1 receptor (OX1R; HCRTR1): Fluorescence-based cell-based high throughput dose response assay to identify antagonists of the parental CHO cell line. [Related pubchem assays (depositor defined):AID434989, AID435008, AID463079, AID485270, AID492963, AID492964, AID492965, AID493232, AID504699, AID504701]; format: functional
[17] = target: T7, Orexin/Hypocretin receptor type 1; assay: Fluorescence-based cell-based high throughput dose response assay for antagonists of the orexin 1 receptor (OX1R; HCRTR1). [Related pubchem assays (depositor defined):AID434989, AID435008, AID463079, AID485270, AID492963, AID492964, AID492965, AID493232, AID504717, AID504718]; format: functional
[18] = test system: CHO-K1; assay: as §1, with “Homogeneous time resolved fluorescence (HTRF)-based” for “Fluorescence-based”, “cell-based” for “cell-based high throughput”, “CHO-K1” for “CHO”; format: functional; conditions: Cricetulus griseus;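 note: potency for inhibition of ATP-stimulated IP1 production as antagonists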
[19] = Intein inhibitors as potential Tuberculosis drugs, a cytotoxicity screen. [Related pubchem assays (depositor defined):AID2221, AID2223, AID434968, AID435010, AID449749, AID449750, AID489010]; format: functional
[20] = target: Voltage-dependent T-type calcium channel subunit alpha-1H (Homo sapiens, UniProt O95180); assay: Cav3.2 T-type channel blockers, cell-based, SynthLib3 library, HEK293 Cav3.2, fluorescence (AID 493041); format: functional
Voltage-dependent T-type calcium channel subunit alpha-1H, sequence (O95180 whole entry): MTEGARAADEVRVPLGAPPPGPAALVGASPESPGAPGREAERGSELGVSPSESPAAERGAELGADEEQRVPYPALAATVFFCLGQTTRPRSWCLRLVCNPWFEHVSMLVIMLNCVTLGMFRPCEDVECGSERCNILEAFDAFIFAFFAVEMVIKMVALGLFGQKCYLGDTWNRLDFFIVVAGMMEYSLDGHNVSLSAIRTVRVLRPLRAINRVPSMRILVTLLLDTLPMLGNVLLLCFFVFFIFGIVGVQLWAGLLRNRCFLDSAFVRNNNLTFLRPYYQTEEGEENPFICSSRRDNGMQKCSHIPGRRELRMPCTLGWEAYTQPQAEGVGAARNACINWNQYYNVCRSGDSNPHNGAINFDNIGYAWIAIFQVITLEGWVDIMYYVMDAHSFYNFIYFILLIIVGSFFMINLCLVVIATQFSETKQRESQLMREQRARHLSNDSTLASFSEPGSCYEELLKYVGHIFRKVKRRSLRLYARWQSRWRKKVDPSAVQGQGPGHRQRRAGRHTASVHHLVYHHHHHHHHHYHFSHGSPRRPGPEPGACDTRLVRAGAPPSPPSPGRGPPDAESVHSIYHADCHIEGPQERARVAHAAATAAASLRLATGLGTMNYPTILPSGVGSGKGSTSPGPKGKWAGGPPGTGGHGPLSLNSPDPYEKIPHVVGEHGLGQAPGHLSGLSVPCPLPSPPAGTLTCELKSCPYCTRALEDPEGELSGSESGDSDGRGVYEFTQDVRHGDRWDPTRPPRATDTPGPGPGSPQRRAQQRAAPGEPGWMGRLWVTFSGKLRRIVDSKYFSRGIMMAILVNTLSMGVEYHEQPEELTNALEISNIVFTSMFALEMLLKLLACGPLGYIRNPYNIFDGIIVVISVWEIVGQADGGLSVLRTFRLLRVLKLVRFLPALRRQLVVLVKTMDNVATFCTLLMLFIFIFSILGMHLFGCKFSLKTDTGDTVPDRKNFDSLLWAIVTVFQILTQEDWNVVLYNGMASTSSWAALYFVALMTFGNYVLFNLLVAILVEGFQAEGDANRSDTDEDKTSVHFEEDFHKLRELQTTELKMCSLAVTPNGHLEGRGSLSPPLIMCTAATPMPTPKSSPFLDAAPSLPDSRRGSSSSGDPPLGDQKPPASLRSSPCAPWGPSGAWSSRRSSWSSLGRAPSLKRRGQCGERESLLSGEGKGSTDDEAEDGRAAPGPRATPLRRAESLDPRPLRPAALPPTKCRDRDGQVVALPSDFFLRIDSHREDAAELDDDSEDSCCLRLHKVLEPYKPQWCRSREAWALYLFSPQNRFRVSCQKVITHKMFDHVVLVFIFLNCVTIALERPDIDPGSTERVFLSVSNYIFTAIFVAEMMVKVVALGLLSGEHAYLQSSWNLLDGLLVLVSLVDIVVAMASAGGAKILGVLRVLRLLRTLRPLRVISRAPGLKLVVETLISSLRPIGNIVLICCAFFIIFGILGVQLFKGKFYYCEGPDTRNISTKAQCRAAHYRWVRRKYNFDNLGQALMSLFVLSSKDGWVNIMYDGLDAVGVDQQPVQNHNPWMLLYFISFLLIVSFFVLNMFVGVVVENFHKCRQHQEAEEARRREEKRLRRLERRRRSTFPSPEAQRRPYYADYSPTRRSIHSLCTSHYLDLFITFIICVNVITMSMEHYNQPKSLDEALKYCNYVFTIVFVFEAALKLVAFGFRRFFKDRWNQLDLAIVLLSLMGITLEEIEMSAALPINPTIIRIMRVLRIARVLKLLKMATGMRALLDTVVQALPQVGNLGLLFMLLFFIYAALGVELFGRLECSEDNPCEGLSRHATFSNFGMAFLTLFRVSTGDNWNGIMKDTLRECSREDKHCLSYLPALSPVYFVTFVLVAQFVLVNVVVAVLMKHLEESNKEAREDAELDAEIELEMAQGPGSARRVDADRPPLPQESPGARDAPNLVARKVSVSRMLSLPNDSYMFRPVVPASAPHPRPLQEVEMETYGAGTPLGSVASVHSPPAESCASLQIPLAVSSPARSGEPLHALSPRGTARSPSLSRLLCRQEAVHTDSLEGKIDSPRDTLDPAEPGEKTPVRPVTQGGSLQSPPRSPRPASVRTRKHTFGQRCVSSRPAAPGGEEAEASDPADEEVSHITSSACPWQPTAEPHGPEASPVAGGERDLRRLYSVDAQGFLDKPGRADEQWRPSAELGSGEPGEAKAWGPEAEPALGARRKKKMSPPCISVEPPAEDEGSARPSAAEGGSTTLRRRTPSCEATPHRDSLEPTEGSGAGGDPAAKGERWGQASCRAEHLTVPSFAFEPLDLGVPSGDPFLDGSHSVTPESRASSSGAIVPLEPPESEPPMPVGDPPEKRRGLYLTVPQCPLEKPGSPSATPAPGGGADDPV

[21] = target: T8, Heat shock factor protein 1 (Mus musculus, UniProt P38532); assay: HSF1 potentiators in luciferase reporter cells, confirmation, cell-based, NIH3T3, luminescence, dose retest (AID 435004); format: functional;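 note: stress induced by proteasome inhibitor MG132 added 30 min after compound; luciferase reporter driven by HSF1 response element in NIH3T3 cells; actives raise luminescence as potentiators of the MG132 stress response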
T8 sequence (P38532 whole entry): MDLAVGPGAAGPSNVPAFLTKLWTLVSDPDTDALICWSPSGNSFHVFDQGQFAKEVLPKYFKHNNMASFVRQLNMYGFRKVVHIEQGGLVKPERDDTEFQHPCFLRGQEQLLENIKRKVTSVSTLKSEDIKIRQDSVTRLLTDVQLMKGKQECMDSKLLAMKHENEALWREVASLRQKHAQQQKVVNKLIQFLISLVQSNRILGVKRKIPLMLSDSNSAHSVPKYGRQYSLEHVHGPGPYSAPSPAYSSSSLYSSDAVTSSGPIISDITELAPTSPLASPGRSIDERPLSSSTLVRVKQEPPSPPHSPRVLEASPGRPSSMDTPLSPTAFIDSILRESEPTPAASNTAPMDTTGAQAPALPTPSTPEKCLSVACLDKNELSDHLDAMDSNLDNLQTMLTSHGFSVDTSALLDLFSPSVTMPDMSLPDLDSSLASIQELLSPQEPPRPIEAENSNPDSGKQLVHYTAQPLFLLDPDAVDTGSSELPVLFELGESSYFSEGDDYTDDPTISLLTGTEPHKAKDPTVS
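Throughout, for CC50: cells exposed to compound for 72 hours before luminescence readout.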

Glucose-6-phosphate 1-dehydrogenase, sequence (P11413 whole entry): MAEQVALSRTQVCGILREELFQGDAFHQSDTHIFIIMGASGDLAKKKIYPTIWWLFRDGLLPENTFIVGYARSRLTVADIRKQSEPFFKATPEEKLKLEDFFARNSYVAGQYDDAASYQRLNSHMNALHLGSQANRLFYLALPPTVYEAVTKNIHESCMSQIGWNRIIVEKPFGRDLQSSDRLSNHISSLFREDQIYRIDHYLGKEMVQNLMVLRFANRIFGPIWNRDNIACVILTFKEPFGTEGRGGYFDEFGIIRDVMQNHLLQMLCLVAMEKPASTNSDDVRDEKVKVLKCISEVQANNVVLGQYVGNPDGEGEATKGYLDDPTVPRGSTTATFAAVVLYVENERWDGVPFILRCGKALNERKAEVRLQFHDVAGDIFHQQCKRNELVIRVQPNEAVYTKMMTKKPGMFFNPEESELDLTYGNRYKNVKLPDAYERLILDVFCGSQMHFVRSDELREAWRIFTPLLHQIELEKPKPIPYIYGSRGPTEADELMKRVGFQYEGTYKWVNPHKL

## NCCNc1ccc(C(=O)N2c3ccccc3Sc3ccccc32)cc1[N+](=O)[O-]
[1]
  IC50: > 80 µM (inactive)
[2]
  IC50: 9.58 µM (active)
[3]
  IC50: 10.9 µM (active)
[4]
  IC50: > 20 µM (inactive)
[5]
  AC50: 6.81 µM (active)

## Cc1ccc(NC(=O)C2CC(=O)Nc3nc4ccccc4n32)c(C)c1 (configuration not stated)
[6]
  EC50: 34.5 µM (active)

## COC(=O)c1c(-c2ccc(SC)cc2)sc2ccc(OC)cc12
[2]
  IC50: 18.9 µM (active)
[3]
  IC50: > 20 µM (inactive)
[4]
  IC50: > 20 µM (inactive)

## CC1(C)CC(=O)c2c(n[nH]c2Cc2ccccc2)C1
[7]
  IC50: 1.24 µM (active)
[8]
  IC50: > 100 µM (not active)
[9]
  IC50: > 100 µM (inactive)

## O=C(CCCN1C(=O)S/C(=C\C=C\c2ccccc2)C1=O)Nc1ccc(C(=O)O)cc1
[10]
  AC50: 39.2 µM (active)
[11]
  IC50: 9.54 µM (active)
[12]
  IC50: 1.26 µM (active)
[13]
  EC50: 51.2 µM (active)
[14]
  IC50: 12.9 µM (inactive)

## Cc1ccc(/C=C2\Sc3ccccc3C2=O)s1
[10]
  AC50: 11.8 µM (active)
[15]
  IC50: 23.1 µM (inactive)
[16]
  IC50: > 49.7 µM (inactive)
[17]
  IC50: 22.5 µM (inactive)
[13]
  EC50: 4.87 µM (active)
[18]
  IC50: > 66.2 µM (inactive)

## N#Cc1ccc(-n2c(-c3ccccc3)nnc2-c2ccccc2)cc1C#N
[10]
  AC50: 3.83 µM (active)
[13]
  EC50: 3.36 µM (active)
[19]
  CC50: > 40 µM (active)

## CCCN1C[C@@H]2C(CNC(=O)c3cc(Cl)cc(Cl)c3)[C@@H]2C1 (some centres not stated)
[20]
  EC50: 10 µM (active)

## CC(Cc1nnc(NC(=O)COc2ccc(F)cc2Cl)o1)CC(C)(C)C (configuration not stated)
[20]
  EC50: 1.2 µM (active)

## Cc1ccc(Sc2ccc(NC(=O)CCl)cc2)c(C)c1
[10]
  AC50: 2.5 µM (active)
[21]
  EC50: 9.67 µM (active)
[13]
  EC50: 0.718 µM (active)
[19]
  CC50: 9.81 µM (active)
